Results on 1 substance are retold here after patent US20070015741A1, “Novel prodrugs of estradiol” (priority 2005, published 2007).

The series in a line: Stability at 40° C./75% RH, prodrug assayed by HPLC for degradation to parent compound estradiol. Format: physicochemical. The settings on record: HPLC assay of prodrug. As to the method:
The following is an example of stability for the preferred compound described previously. Stability was conducted at 40° C./75% RH, with the prodrug being assayed at specific time-points for degradation to the parent compound, estradiol. The time-points for stability were T=0 months, T=2 weeks, T=1 month, and T=3 months. The following outlines the conditions utilized for analysis of the prodrug. Analysis was conducted using High-Performance Liquid Chromatography (HPLC). The retention time for estradiol lactate acetate was approximately 9.0 minutes using these conditions. Conditions for HPLC analysis: [table]

In the case of estradiol lactate-acetate, the “Assay (%) T = 0” value (T=0 months) is 94.45%. In addition, the “Assay (%) T = 1” value (T=1 month) was 92.77%. Besides, the “Assay (%) T = 2 W” value (T=2 weeks) is listed as 93.47%. Moreover, the “Assay (%) T = 3” value (T=3 months) was found to be 94.3%.
